Experimental data from US20050054582A1, “Para-amino benzoic acids as integrin antagonists” (priority 2001, published 2005).
Where two headings read alike, the source gives them in different places.

Experiments:
[1] = tested on: adhesion of Ramos cells to VCAM-1; assay: Adhesion of Ramos cells to immobilized VCAM-1 (domains 1-3); format: cell-based; settings: Homo sapiens
Text: In Vitro Assay: Adhesion of Ramos Cells to Immobilized VCAM-1 (Domains 1-3) Preparation of VCAM-1 (Extracellular Domains 1-3)
Complementary DNA (cDNA) encoding 7-domain form of VCAM-1 (GenBank accession #M60335) was obtained using Rapid-Screen™ cDNA library panels (OriGene Technologies, Inc) at Takara Gene Analysis Center (Shiga, Japan). The primers used were 5′-CCAAGGCAGAGTACGCAAAC-3′ (sense) and 5′-TGGCAGGTATTATTAAGGAG-3′ (antisense). PCR amplification of the 3-domain VCAM-1 cDNA was perform using Pfu DNA polymerase (Stratagene) with the following sets of primers: (U-VCAMd1-3) 5′-CCATATGGTACCTGATCAATTTAAAATCGAGACCACCCCAGAA-3′; (L-VCAMdl-3) 5-CCATATAGCAATCCTAGGTCCAGGGGAGATCTCAACAGTAAA-3′. PCR cycle was 94° C. for 45 sec, 55° C. for 45 sec, 72° C. for 2 min, repeating 15 cycles. After the purification of the PCR product, the fragment was digested with KpnI-AvrII. The digested fragment was ligated into pBluescript IISK(−) (Strategene), which was linearized by digesting with KpnI-XhoI. The ligation was followed by transformation to a Dam/Dcm methylase-free E. coli strain SCS110 (Strategene) to create the donor plasmid […]. To direct VCAM-1 molecule into the insect cell secretory pathway, the VCAM-1 coding sequence was fused to signal peptide sequence of honeybee melittin. The resulting melittin-VCAM fusion was placed in correct orientation to the baculovirus polyhedrin promoter. Baculovirus transfer vector containing first 3-domain form VCAM-1 (pH10) was constructed by ligation of 0.9 kb fragment from AvrII/Klenow/BclI digests of pH7 into SalI/Klenow/BamHI digests of pMelBacB (Invitrogen). Recombinant baculovirus was generated by using Bac-N-Blue™ Transfection kit (Invitrogen) according to the manufacture's instruction. The recombinant virus was amplified by infection to High-Five™ insect cells for 5-6 days, and virus titer was determined by plaque assay.
High-Five™ insect cells were pelleted in a 225 ml conical tube by centrifugation at 1000 rpm for 5 min. After discarding the supernatant, the pellet was resuspended in 1.5×10^9 pfu (MOI=5) of high-titer virus solution, followed by incubation for 1.5 hours at room temperature. The cells were pelleted again and washed once in fresh Express Five™ serum free medium. The cells were pelleted again and finally, resuspended in 200 ml of fresh Express Five TM medium, transferred to a 1,000 ml shaker flask, and incubated in a shaker at 27° C., 130 rpm, for 48 hours before the culture supernatant was collected. The purification of 3-domain form of VCAM-1 from the culture supernatant was performed by one-step anion exchange chromatography. Protein concentration was determined by using Coomassie protein assay reagent (Pierce) according to the manufacture's instruction.
Preparation of VCAM-1 Coated Microtiter Plates
Recombinant human VCAM-1 (extracellular domains 1-3) was dissolved at 1.0 μg/ml in PBS. Each well of the microtiter plates (Nalge Nunc International, Fluoronunc Cert, 437958) was coated with 100 μl of substrate or for background control with buffer alone for 15 hours at 4 C. After discarding the substrate solution, the wells were blocked using 150 μl per well of block solution (Kirkegaard Perry Laboratories, 50-61-01) for 90 minutes. The plate was washed with wash buffer containing 24 mM Tris-HCl (pH 7.4), 137 mM NaCl, […] and 2 mM MnCl2 just before addition of the assay.
In Vitro Assay using Ramos Cells
Preparation of Fluorescence Labeled Ramos Cells:
Ramos cells (American Type Culture Collection, Clone CRL-1596) were cultured in RPMI 1640 medium (Nikken Bio Medical Laboratory, CM1101) supplemented with 10% fetal bovine serum (Hyclone, A-1119-L), 100 U/ml penicilin (Gibco BRL, 15140-122) and 100 μg/ml streptomycin (Gibco BRL, 15140-122) in a humidified incubator at 37° C. with 5% CO2. […]

IC50 ([1]; Ramos) [nM]	melting point [°C]	IC50 ([1]; observed IC50 value ranges, Table 4 does not say whether Ramos-VCAM-1 or Jurkat-VCAM-1, read-out: IC50) [nM]	Compound
500 to 2000	162 to 165		O=C(CN(CCc1cccc(Cl)c1)C(=O)Cc1ccc2nc(Nc3ccccc3)oc2c1)Nc1ccc(C(=O)O)cc1 [Example 78]
< 500	252 to 253		O=C(CN(CCc1ccccn1)C(=O)Cc1ccc2nc(Nc3ccccc3)oc2c1)Nc1ccc(C(=O)O)cc1 [Example 76, 4-({N-[(2-anilino-1,3-benzoxazol-6-yl)acetyl]-N-[2-(2-pyridinyl)ethyl]glycyl}amino)benzoic acid]
< 500	267 to 268		Cc1ccccc1Nc1nc2ccc(CC(=O)NCC(=O)Nc3ccc(C(=O)O)cc3)cc2o1 [Example 81, 4-{[N-({2-[(2-methylphenyl)amino]-1,3-benzoxazol-6-yl}acetyl)glycyl]-amino}benzoic acid]
> 10000	76 to 76.5		COCCCN(CC(=O)N(CC(C)C)c1ccc(C(=O)O)cc1)C(=O)Cc1ccc(NC(=O)Nc2ccccc2C)cc1 [Example 52, 4-[isobutyl(N-(3-methoxypropyl)-V-{[4-({[(2-methylphenyl)amino]carbonyl}amino)phenyl]acetyl}glycyl)amino]benzoic acid]
500 to 2000	63 to 64		COCCCN(CC(=O)N(C)c1ccc(C(=O)O)cc1)C(=O)Cc1ccc(NC(=O)Nc2ccccc2C)cc1 [Example 53, 4-[(N-(3-methoxypropyl)-N-{[4-({[(2-methylphenyl)amino]carbonyl}amino)phenyl]acetyl}glycyl)(methyl)amino]benzoic acid]
< 500	210 to 218		COCCCN(CC(=O)Nc1ccc(C(=O)O)cc1)C(=O)Cc1ccc(NC(=O)Nc2ccccc2C)cc1 [Example 38]
< 500	236 to 238		Cc1ccccc1NC(=O)Nc1ccc(CC(=O)NC2CCCN(c3ccc(C(=O)O)cc3)C2)cc1 (stereo not drawn) [Example 49, 4-[3-({[4-({[(2-methylphenyl)amino]carbonyl}amino)phenyl]acetyl}amino)-1-piperidinyl]benzoic acid]
< 500	160 to 162		O=C(CN(CCc1ccccc1)C(=O)Cc1ccc2nc(Nc3ccccc3)oc2c1)Nc1ccc(C(=O)O)cc1 [Example 75, 4-{[N-[(2-anilino-1,3-benzoxazol-6-yl)acetyl]-N-(2-phenylethyl)glycyl]-amino}benzoic acid]
< 500	> 280		O=C(Cc1ccc2nc(Nc3ccccc3)oc2c1)NCC(=O)Nc1ccc(C(=O)O)cc1 [Example 74, 4-({N-[(2-anilino-1,3-benzoxazol-6-yl)acetyl]glycyl}amino)benzoic acid]
> 10000	156 to 158		O=C(CN(CCc1ccc(Oc2ccc(Cl)cc2)cc1)C(=O)Cc1ccc2nc(Nc3ccccc3)oc2c1)Nc1ccc(C(=O)O)cc1 [Example 80]
< 500	232 to 233		Cc1ccccc1Nc1nc2ccc(CC(=O)N(CCc3ccccc3)CC(=O)Nc3ccc(C(=O)O)cc3)cc2o1 [Example 82, 4-{[N-({2-[(2-methylphenyl)amino]-1,3-benzoxazol-6-yl}acetyl)-N-(2-phenylethyl)glycyl]amino}benzoic acid]
< 500	219 to 223		Cc1ccccc1NC(=O)Nc1ccc(CC(=O)NC(CC(C)C)C(=O)Nc2ccc(C(=O)O)cc2)cc1 (stereo not drawn) [Example 37]
	168 to 169	< 500	Cc1ccccc1NC(=O)Nc1ccc(CC(=O)N[C@@H](CCCCN)C(=O)Nc2ccc(C(=O)O)cc2)cc1.O=C(O)C(F)(F)F [Example 53a]
< 500			Cc1ccccc1NC(=O)Nc1ccc(CC(=O)NC(Cc2ccncc2)C(=O)Nc2ccc(C(=O)O)cc2)cc1 [Example 44, 4-{[N-{[4-(f{[(2-methylphenyl)amino]carbonyl}amino)phenyl]acetyl}-3-(4-pyridinyl)-L-alanyl]amino}benzoic acid]
500 to 2000			O=C(CN(CCCN1CCCC1)C(=O)Cc1ccc2nc(Nc3ccccc3)oc2c1)Nc1ccc(C(=O)O)cc1 [Example 84]
< 500			O=C(Cc1ccc2nc(Nc3ccccc3)oc2c1)N[C@@H](Cc1ccccc1)C(=O)Nc1ccc(C(=O)O)cc1 [Example 89, 4-({N-[(2-anilino-1,3-benzoxazol-6-yl)acetyl]-L-phenylalanyl}amino)benzoic acid]
500 to 2000			O=C(Cc1ccc2nc(Nc3ccccc3)oc2c1)N[C@@H](Cc1ccc(Br)cc1)C(=O)Nc1ccc(C(=O)O)cc1 [Example 91]
< 500			Cc1ccccc1NC(=O)Nc1ccc(CC(=O)N[C@@H](Cc2ccc(Br)cc2)C(=O)Nc2ccc(C(=O)O)cc2)cc1 [Example 90, 4-[(4-bromo-N-{[4-({[(2-methylphenyl)amino]carbonyl}amino)phenyl]-acetyl}-L-phenylalanyl)amino]benzoic acid]
< 500			Cc1ccccc1NC(=O)Nc1ccc(CC(=O)N(CC(=O)Nc2ccc(C(=O)O)cc2)Cc2ccccn2)cc1 [Example 70, 4-{[N-{[4-({[(2-methylphenyl)amino]carbonyl}amino)phenyl]acetyl}-N-(2-pyridinylmethyl)glycyl]amino}benzoic acid]
< 500			Cc1ccccc1NC(=O)Nc1ccc(CC(=O)N(CC(=O)Nc2ccc(C(=O)O)cc2)CC2CCCO2)cc1 (stereo not drawn) [Example 61, 4-{[N-{[4-({[(2-methylphenyl)amino]carbonyl}amino)phenyl]acetyl}-N-(tetrahydro-2-furanylmethyl)glycyl]amino}benzoic acid]
< 500			Cc1ccccc1NC(=O)Nc1ccc(CC(=O)N[C@@H](Cc2ccccc2)C(=O)Nc2ccc(C(=O)O)cc2)cc1 [Example 88, 4-[(N-{[4-({[(2-methylphenyl)amino]carbonyl}amino)phenyl]acetyl}-L-phenylalanyl)amino]benzoic acid]
500 to 2000			O=C(CN(Cc1ccccc1)C(=O)Cc1ccc2nc(Nc3ccccc3)oc2c1)Nc1ccc(C(=O)O)cc1 [Example 92]
< 500			Cc1ccccc1NC(=O)Nc1ccc(CC(=O)N(CC(=O)Nc2ccc(C(=O)O)cc2)Cc2ccccc2)cc1 [Example 86, 4-[(N-benzyl-N-{[4-({[(2-methylphenyl)amino]carbonyl}amino)phenyl]-acetyl}glycyl)amino]benzoic acid]
< 500			COc1cccc(CCN(CC(=O)Nc2ccc(C(=O)O)cc2)C(=O)Cc2ccc(NC(=O)Nc3ccccc3C)cc2)c1 [Example 85, 4-[(N-[2-(3-methoxyphenyl)ethyl]-N-{[4-({[(2-methylphenyl)amino]-carbonyl}amino)phenyl]acetyl}glycyl)amino]benzoic acid]
< 500			Cc1ccccc1NC(=O)Nc1ccc(CC(=O)N(CCCN2CCCC2=O)CC(=O)Nc2ccc(C(=O)O)cc2)cc1 [Example 66, 4-({N-{[4-({[(2-methylphenyl)amino]carbonyl}amino)phenyl]acetyl}-N-[3-(2-oxo-1-pyrrolidinyl)propyl]glycyl}amino)benzoic acid]
< 500			Cc1ccccc1NC(=O)Nc1ccc(CC(=O)N(CCc2ccccn2)CC(=O)Nc2ccc(C(=O)O)cc2)cc1 [Example 73, 4-({N-{[4-({[(2-methylphenyl)amino]carbonyl}amino)phenyl]acetyl}-N-[2-(2-pyridinyl)ethyl]glycyl}amino)benzoic acid]
